Assays:
Pseudomonas aeruginosa = assay: Synergism BIT/TMAD, amounts required to suppress growth; format: cell-based; conditions: compound applied on its own
From the text: (§1) The observed synergism of the mixtures according to the invention can be determined by the following mathematical approach (cf. F. C. Kull, P. C. Elisman, H. D. Sylwestrowicz and P. K. Mayer, Appl. Microbiol. 9, 538 (1961): [formula] where • Qa=the amount of component A in the active compound mixture required to achieve the desired effect, i.e. no microbial growth, • QA=the amount of component A which, applied on its own, suppresses the growth of the microorganisms, • Qb=the amount of component B in the active compound mixture which supresses the growth of the microorganisms, and • QB=the amount of component B which, applied on its own, suppresses the growth of the microorganisms.
(§2) A synergistic index of SI<1 indicates a synergistic effect for the active compound mixture.
Test germ: Pseudomonas aeruginosa
(§3) The numbers in brackets indicate the weight ratio of the active compounds in the mixtures. [formula] A=BIT/B=TMAD

Pseudomonas fluorescens = assay: as above; format: cell-based; conditions: compound applied on its own
From the text: as §1, §2
Test germ: Pseudomonas fluorescens
as §3

SMILES | Amounts of the pure active compounds required to suppress growth (Pseudomonas aeruginosa) | Amounts of the pure active compounds required to suppress growth (Pseudomonas fluorescens)
O=c1[nH]sc2ccccc12 [BIT, 1,2-benzisothiazolinone] | 20 ppm | 20 ppm
O=C1N(CO)C2C(N1CO)N(CO)C(=O)N2CO (stereo not shown) [TMAD, tetramethylolacetylenediurea] | 500 ppm | 500 ppm

— patent US20060111410A1, “Microbicide substances” (priority 2002, published 2006)
